# Assays:
# LGC-50:MOD-1(363-397) = target: T1, LGC-50:MOD-1(363-397) (Caenorhabditis elegans, UniProt P41849); experiment: Two-electrode voltage clamp, 5-HT evoked dose response, LGC-50:MOD-1(363-397) chimera; assay type: cell-based, C. elegans; details: Xenopus oocytes, TEVC
# T1 sequence (P41849 with tags, fused parts or gaps): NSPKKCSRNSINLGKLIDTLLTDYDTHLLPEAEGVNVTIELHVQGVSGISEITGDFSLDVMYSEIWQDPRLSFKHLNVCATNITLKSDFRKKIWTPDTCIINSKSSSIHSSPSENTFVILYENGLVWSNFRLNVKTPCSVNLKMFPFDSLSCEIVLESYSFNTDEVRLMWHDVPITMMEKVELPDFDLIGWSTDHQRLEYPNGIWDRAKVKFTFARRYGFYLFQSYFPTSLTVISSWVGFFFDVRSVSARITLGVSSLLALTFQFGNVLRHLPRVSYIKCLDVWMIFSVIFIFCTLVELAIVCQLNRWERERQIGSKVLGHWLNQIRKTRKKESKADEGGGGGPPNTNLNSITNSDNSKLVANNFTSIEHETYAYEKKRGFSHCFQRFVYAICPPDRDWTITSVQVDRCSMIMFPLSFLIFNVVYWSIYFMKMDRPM
# T1 sequence (Q9GQ00 363-397 partner): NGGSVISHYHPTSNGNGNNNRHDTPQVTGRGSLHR
# Protocol: Defolliculated Xenopus laevis oocytes were obtained from EcoCyte Bioscience (Dortmund, Germany) and maintained in ND96 (in mM: 96 NaCl, 1 MgCl2, 5 HEPES, 1.8 CaCl2, 2 KCl) solution at 16°C for 3-5 days.
# 5'-capped cRNA was synthesized in vitro using the T3 mMessage mMachine transcription kit according to manufacturer’s protocol (Thermo Fischer Scientific, CA, USA). RNA was then purified using the GeneJET RNA purification kit (Thermo Fischer Scientific, CA, USA) prior to cRNA injection. Defolliculated Xenopus oocytes were placed individually into 96 well plates and injected with 50nL of 500ng/μL RNA using the Roboinject system (Multi Channel Systems GmbH, Reutlingen, Germany). […]
# (§1) Two-electrode voltage clamp recordings were carried out using the Robocyte2 recording system or a manual TEVC set up, using an OC-725D amplifier (Multi Channel Systems, Reutlingen, Germany) and paired with a custom-made recording chamber and agar bridges from reference and bath electrodes. […] Data was recorded using WinWCP or RoboCyte2 control software, manual data was filtered at 10 Hz.
# Dose response curves were calculated from the peak current during a 10 s agonist stimulation in ND96 solution, with a 60 s ND96 wash in between doses. […] Normalized dose response data was fitted to a nonlinear curve using a four parameters variable slope and the EC50 and Hill slope was calculated. […]
# [1] = target: T2, LGC-50 S335A, T348A, S353A (Caenorhabditis elegans, UniProt P41849, S335A/S353A/T348A); experiment: Two-electrode voltage clamp, 5-HT evoked dose response, LGC-50 phospho-dead mutant; assay type: cell-based, C. elegans
# T2 construct: Plasmid: KSM: lgc-50 (cDNA, S335A, T348A, S353A); expressed in transfected cells; host or cells: Xenopus laevis oocytes injected with cRNA (plasmid pIH128)
# From the text: In addition to this region, we also investigated three upstream predicted phosphorylation sites. Phosphorylation of the M3/4 loop has previously been implicated in the trafficking and cell surface recycling of GABAA receptors.[23]^,[24] The first site in the M3/4 loop of LGC-50, S335, is predicted to be a cdc2 site, and T348 and S353 are predicted protein kinase C (PKC) or PKA sites (Table S2).[25]^,[26] We introduced both phosphorylation-dead alanine mutations and phosphomimic aspartate mutations into these sites to assess their effect on receptor trafficking. […]
# as §1
# Dose response curves were calculated from the peak current during a 10 s agonist stimulation in ND96 solution, with a 60 s ND96 wash in between doses. […] Normalized dose response data was fitted to a nonlinear curve using a four parameters variable slope and the EC50 and Hill slope was calculated. […] Kinetic measurements were calculated from a 60 s agonist perfusion. […]
# T2 sequence (P41849 20-491 S335A/T348A/S353A): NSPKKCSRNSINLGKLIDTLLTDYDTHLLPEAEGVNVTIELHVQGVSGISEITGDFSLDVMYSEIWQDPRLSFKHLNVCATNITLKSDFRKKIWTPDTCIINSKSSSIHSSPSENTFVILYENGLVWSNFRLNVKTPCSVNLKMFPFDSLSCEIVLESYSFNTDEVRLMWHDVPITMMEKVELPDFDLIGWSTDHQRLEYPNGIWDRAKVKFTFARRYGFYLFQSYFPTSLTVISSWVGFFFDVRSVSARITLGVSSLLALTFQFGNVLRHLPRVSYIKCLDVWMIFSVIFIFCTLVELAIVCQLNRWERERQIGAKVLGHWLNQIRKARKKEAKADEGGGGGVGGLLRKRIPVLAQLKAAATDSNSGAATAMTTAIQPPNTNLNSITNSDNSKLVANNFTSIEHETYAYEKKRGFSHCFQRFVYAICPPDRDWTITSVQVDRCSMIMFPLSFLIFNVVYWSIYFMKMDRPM
structure (smiles),measurement,setting,value
"NCCc1c[nH]c2ccc(O)cc12 [5-HT, serotonin]",EC50,LGC-50:MOD-1(363-397),980 nM
same,EC50,[1],570 nM
